# What was measured:
# [1] = test system: mMB-SLCs; test: Western Blot of H3K27me3, PCNA, cleaved caspase 3 in mMB-SLCs; assay type: cell-based, mouse; settings: 48 h
# Procedure: Afterwards, we tested the ability of MC3629 (at 0.5, 5, and 25 μM) to inhibit the EZH2 enzymatic activity on a cell-based assay in vitro. The lower significant MC3629 dosage to decrease the H3K27me3 level in MB-SLCs was 5 μM (Figure 2C).
# (§1) To evaluate cell viability cells were plated at a density of 5×10^3 cells/well in 96-well plates and were incubated with MTS solution (CellTiter 96® AQueous One Solution Promega).
# (§2) Western blots were performed according to standard procedures. Briefly, protein lysates were prepared using RIPA buffer with fresh protease inhibitors. Lysates were separated on SDS polyacrylamide gels. Proteins were transferred on nitrocellulose membrane (0.45 micron) (PerkinElmer). Membranes were blocked for 1 h at room temperature in 5% nonfat dry milk and incubated overnight at 4°C with antibodies against EZH2 (4905S Cell signaling), H3K27me3 (07-449 Millipore), PCNA (2586 Cell signaling), ACTIN (I-19 sc-1616; Santa Cruz Biotechnology), GAPDH (ab9484, Abcam), cleaved CSP-3 (D-175 9661S; Cell Signaling) and H3 (ab1971, Abcam). HRP-conjugated secondary antibodies (Santa Cruz Biotechnology) were used in combination with enhanced chemiluminescence (ECL Amersham).
# [2] = test system: DAOY cells; test: Western Blot of H3K27me3 and PCNA in DAOY cells; assay type: cell-based; settings: 5 μM, 48 h
# Procedure: as §1, §2
# [3] = test system: hMB-SLCs; test: Self-renewal, clonogenic assay, hMB-SLCs; assay type: cell-based, human; settings: 5 μM
# Procedure: (§3) For self-renewal assessment, clonogenic assay was performed as previously described. Briefly: oncospheres were disaggregated with non-enzymatic cell dissociation buffer (Sigma) and cells were plated at clonal density (1-2 cells/mm^2) into 96-well plates and cultured for an appropriate number of days (7-15) until oncospheres were countable.
# [4] = test system: DAOY-SLCs; test: Cell death (Trypan blue test) in DAOY-SLCs; assay type: cell-based; settings: 5 μM, 72 h
# Procedure: Trypan blue exclusion test was used to count viable or death cells present in a cell suspension. Each sample was measured in triplicate and repeated at least three times.
# [5] = test system: neural stem cells (NSC); test: Western Blot of H3K27me3 and PCNA in neural stem cells (non-transformed cells); assay type: cell-based; settings: 5 μM, 48 h
# Procedure: as §2
# [6] = target: MLL1 complex (Homo sapiens, UniProt Q03164); test: Methyltransferase panel: MLL1 complex; assay type: biochemical; settings: substrate nucleosomes
# Procedure: (§4) MC3629 was tested in the cell free enzymatic assay (EZH2/PRC2) in 10-dose IC50 mode with 2-fold serial dilution starting from 400 μM solution, using various histone substrates (histone H3/H4 octamer, histone H3/H4 tetramer, histone H3, and core histone) and SAM as the co-substrate. […] (Figure 2B, and Supplementary Figure 2).
# (§5) The appropriate methyltransferase (MT) substrate (0.05 mg/ml core histone for EZH1 complex, 0.05 mg/ml oligonucleosomes for DOT1L, 5 μM histone H3 (1-21) peptide for G9a, 0.05 mg/ml nucleosomes for MLL1 complex, 0.05 mg/ml core histone for SET7/9, 5 μM histone H4 for PRMT1, and 0.001 mg/ml poly(dI-dC) for DNMT1) was added in freshly prepared Reaction Buffer (50 mM Tris-HCl (pH 8.5), 5 mM MgCl2, 50 mM NaCl, 0.01% Brij35, 1 mM DTT, 1% DMSO). The MT enzyme was delivered into the substrate solution and the mixture was mixed gently. Afterwards, the tested compound dissolved in DMSO was delivered into the enzyme/substrate reaction mixture by using Acoustic Technology (Echo 550, LabCyte Inc. Sunnyvale, CA) in nanoliter range, and 1 μM ^3H-SAM was also added into the reaction mixture to initiate the reaction. The reaction mixture was incubated for 1 h at 30°C and then it was delivered to filter-paper for detection. The data were analyzed using Excel and GraphPad Prism software for IC50 curve fits (for EZH1 complex).
# [7] = test system: mMB-SLCs; test: Self-renewal, clonogenic assay, mMB-SLCs; assay type: cell-based, mouse; settings: 5 μM
# Procedure: as §3
# [8] = test system: hMB-SLCs; test: Cell viability, MTS assay, hMB-SLCs; assay type: cell-based, human
# Procedure: In both cell lines, we determined the lowest useful dose of MC3629 (5 μM) and the minimum effective time (48 h) (Figure 2D, 2E and Supplementary Figure 4A and 4B for data at 24 and 72 h). We next evaluated the performance of MC3629 on MB-SLCs in terms of cell viability in regards to other EZH2i in use, confirming the dose selection (Supplementary Figure 4C).
# as §1
# [9] = target: DNMT1 (Homo sapiens, UniProt P26358); test: Methyltransferase panel: DNMT1; assay type: biochemical; settings: substrate Poly dI-dC
# Chain of DNMT1 (P26358 whole entry, species assumed): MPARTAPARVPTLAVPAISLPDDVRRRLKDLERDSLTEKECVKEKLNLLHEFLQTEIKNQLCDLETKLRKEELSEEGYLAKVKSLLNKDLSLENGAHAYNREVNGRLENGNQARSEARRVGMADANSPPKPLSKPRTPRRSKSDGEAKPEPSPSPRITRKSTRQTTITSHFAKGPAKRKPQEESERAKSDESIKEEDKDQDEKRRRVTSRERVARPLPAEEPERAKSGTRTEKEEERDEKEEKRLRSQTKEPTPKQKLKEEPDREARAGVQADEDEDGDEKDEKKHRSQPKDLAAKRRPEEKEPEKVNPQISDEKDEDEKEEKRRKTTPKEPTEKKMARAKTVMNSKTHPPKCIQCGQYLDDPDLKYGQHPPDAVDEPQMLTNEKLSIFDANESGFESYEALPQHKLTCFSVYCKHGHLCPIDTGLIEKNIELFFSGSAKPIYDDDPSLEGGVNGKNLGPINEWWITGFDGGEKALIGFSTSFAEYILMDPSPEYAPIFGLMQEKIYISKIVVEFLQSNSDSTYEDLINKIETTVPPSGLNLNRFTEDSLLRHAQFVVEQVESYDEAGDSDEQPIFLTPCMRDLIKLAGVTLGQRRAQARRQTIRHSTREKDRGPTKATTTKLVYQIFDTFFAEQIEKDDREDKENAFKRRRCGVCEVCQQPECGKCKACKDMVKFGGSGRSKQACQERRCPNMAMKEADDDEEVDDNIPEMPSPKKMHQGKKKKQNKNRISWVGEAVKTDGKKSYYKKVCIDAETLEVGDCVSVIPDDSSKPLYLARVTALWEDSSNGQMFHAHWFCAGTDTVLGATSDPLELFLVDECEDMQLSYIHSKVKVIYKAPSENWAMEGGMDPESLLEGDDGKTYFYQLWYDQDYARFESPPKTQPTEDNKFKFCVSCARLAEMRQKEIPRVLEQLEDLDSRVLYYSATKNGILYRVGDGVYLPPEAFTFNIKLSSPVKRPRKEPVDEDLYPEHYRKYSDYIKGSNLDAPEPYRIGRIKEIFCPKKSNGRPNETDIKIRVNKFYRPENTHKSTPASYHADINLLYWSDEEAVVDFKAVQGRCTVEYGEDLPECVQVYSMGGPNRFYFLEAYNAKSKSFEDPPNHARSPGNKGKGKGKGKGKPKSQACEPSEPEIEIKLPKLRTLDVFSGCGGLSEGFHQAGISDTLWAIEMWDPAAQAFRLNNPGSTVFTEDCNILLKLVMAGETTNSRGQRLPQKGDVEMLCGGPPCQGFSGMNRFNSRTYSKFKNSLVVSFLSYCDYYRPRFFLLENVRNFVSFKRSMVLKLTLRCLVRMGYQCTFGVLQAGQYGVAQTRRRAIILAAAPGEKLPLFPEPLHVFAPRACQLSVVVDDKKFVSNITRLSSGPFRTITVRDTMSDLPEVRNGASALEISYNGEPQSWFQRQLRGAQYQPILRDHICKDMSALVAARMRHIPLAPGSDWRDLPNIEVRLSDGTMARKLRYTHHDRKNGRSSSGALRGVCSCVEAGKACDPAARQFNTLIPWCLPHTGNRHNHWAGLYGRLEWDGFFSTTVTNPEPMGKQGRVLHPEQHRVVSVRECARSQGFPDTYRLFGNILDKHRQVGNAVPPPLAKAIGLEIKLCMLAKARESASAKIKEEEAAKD
# Procedure: as §4, §5
# [10] = target: T1, SET7/9 (Homo sapiens, UniProt Q8WTS6); test: Methyltransferase panel: SET7/9; assay type: biochemical; settings: substrate histone H3/H4 octamer
# T1 sequence (Q8WTS6 1-366): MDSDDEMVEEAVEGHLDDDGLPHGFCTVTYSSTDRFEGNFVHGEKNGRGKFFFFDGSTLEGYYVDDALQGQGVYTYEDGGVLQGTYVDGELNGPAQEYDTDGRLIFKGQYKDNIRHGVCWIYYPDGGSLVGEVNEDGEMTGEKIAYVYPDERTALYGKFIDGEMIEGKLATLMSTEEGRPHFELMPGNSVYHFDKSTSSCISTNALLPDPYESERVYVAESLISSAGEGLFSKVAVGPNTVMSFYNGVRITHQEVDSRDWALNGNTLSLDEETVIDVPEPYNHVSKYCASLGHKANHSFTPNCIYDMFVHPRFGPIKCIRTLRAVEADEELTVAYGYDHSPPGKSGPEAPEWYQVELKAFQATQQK
# Procedure: as §4, §5
structure (smiles),measurement,setting,value
"Cc1cc(C)c(CNC(=O)c2cnn(-c3ccccc3)c2C)c(=O)[nH]1 [MC3629, N-((4,6-dimethyl-2-oxo-1,2-dihydropyridin-3-yl)methyl)-5-methyl-1-phenyl-1H-pyrazole-4-carboxamide]",H3K27me3 and PCNA protein levels,"[1]; mMB-SLCs, 5 μM",significantly impaired
same,"apoptosis, level of cleaved caspase 3","[1]; mMB-SLCs, 5 μM",induced apoptosis
same,lower significant dosage to decrease the H3K27me3 level,"[1]; tested at 0.5, 5, 25 μM",5 µM
same,H3K27me3 and PCNA levels,[2],impaired
same,self-renewal,[3],significantly reduced
same,cell death,[4],induced cell death
same,H3K27me3 and PCNA protein levels,[5],did not observe any effects
same,inhibition at 200 µM,[6],20.7%
same,self-renewal,[7],significantly reduced
same,"minimum effective time, cell viability",[8],48 h
same,"cell viability, combination with shEZH2 versus shEZH2 alone","[8]; 5 μM, 48 h",did not display any additive effect
same,"lowest useful dose, cell viability",[8]; dose- and time-dependent experiments,5 µM
same,inhibition at 200 µM,[9],0%
same,inhibition at 200 µM,[10],5.2%
